From patent US11413278B2, “Compounds and methods for promoting stress resistance” (priority 2015, dated 2022)
Where two headings read alike, the source gives them in different places.

How the values were obtained:
WI-38 cells [1] = conditions: no H2O2 stress, 10 uM; negative control 0.41% ± 0.23%
Method: WI-38 cells were seeded on 384-well plates for 24 hrs and then incubated with small molecules for 24 hrs. […] Images were collected on an INCell Analyzer 2000 (GE) and analyzed with the Developer software.

C. elegans = C. elegans lifespan assays (liquid and plate); assay type: in vivo, Caenorhabditis elegans; conditions: for ILS at 60 µM / ILS at 66 µM: Caenorhabditis elegans; for O = Life span- extending scores in worms: score scale 0 to 2, 4 to 6 independent trials; for M = Lifespan-extending scores in worms: summary score
FOXO3 = FOXO3 siRNA knockdown: dependency for H2O2-resistance; assay type: cell-based, human
WI-38 cells [2] = assay: CdCl2 (cadmium) resistance assay; assay type: cell-based, human; conditions: for fold induction at 10 µM: Homo sapiens, 12 h, normalized ATP measurement; for Assay 4: H2O2- & Cd-resistant / Assay 2: Cadmium-resistant: YES/NO; for Assay 2: Cadmium-resistant: * indicates partial
In short: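 WI-38 cells were given compounds at five final concentrations (0.25–20 μM) in triplicate, followed by cadmium or MMS for 12 h. For MMS, medium was switched from OptiMEM+10% FBS to serum-free DMEM+2% BSA when compounds were added, 24 h before stressor. Two independent assays were run, analysed by global variance t-test.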

[3] = in liquid, wild type, with FuDR, 1.0 × 10^9 bacteria/ml, read-out: relative change of mean lifespan vs control, Trial 1
[4] = in liquid, wild type, with FuDR, 2.5 × 10^9 bacteria/ml, read-out: relative change of mean lifespan vs control, Trial 2
[5] = on plate, CF512 temperature-sensitive sterile animals, without FuDR, 2.0 × 10^10 bacteria/ml, read-out: relative change of mean lifespan vs control, Trial 3
[6] = Assay 2(z), 1.0 × 10^9 bacteria/ml, wild type + FuDR (2012 July), read-out: Lifespan assay in liquid
[7] = Assay 3(aa), 2.5 × 10^9 bacteria/ml, wild type + FuDR, read-out: Lifespan assay in liquid
[8] = Assay 4(ab), 2.0 × 10^10 bacteria/ml, CF512 worms, no FuDR, read-out: Lifespan assay on plates
[9] = Exp. 1, WI-38 cells, read-out: Exp. 1, under Cd2Cl2 stress treatment, at 10 uM (fold change)
[10] = Exp. 2, WI-38 cells, read-out: Exp. 2, under Cd2Cl2 stress treatment, at 10 uM (fold change)
[11] = score in summary of 38 core set hits
[12] = on plate, CF512 temperature-sensitive sterile animals, without FuDR, 1.0 × 10^11 bacteria/ml, read-out: relative change of mean lifespan vs control, Trial 4
[13] = Assay 5(ac), 1.0 × 10^11 bacteria/ml, CF512 worms, no FuDR, read-out: Lifespan assay on plates
[14] = WI-38 cells, 10 μM, both stressors

Compound: CCc1ccc(Oc2nc3ccccn3c(=O)c2/C=C(\C#N)C(=O)NCc2ccco2)cc1 [Gr-5B]
- Percentage of propidium iodide-positive dead cells (no H2O2 stress treatment), at 10 uM (WI-38 cells [1]): 0.45% ± 0.15%,
- ILS at 60 µM (C. elegans; [3]): 37.2%
- ILS at 60 µM (C. elegans; [4]): 2%
- ILS at 60 µM (C. elegans; [5]): 1.7%
- ILS at 66 µM (C. elegans; [6]): 37.2%
- ILS at 66 µM (C. elegans; [7]): 2%
- ILS at 66 µM (C. elegans; [8]): 1.7%
- O = Life span- extending scores in worms (C. elegans): 0
- M = Lifespan-extending scores in worms (C. elegans): 0
- I = FOXO3-dependency for H2O2-resistance (FOXO3; score): 0
- I = FOXO3-dependency for H2O2-resistance (FOXO3; summary score): 0
- fold induction at 10 µM (WI-38 cells [2]; [9]): 1.29
- fold induction at 10 µM (WI-38 cells [2]; [10]): 1.36
- A = Cadmium resistant (WI-38 cells [2]; [11]): 0
- A = Cadmium resistant (WI-38 cells [2]; summary score): 0
- C = H2O2- & Cd-resistant (WI-38 cells [2]; summary score): 0

Compound: CNC(=O)/C(C#N)=C/c1c(Oc2ccc(C(C)(C)C)cc2)nc2ccccn2c1=O [Gr-5D]
- Percentage of propidium iodide-positive dead cells (no H2O2 stress treatment), at 10 uM (WI-38 cells [1]): 0.51% ± 0.18%,
- ILS at 60 µM (C. elegans; [3]): 29.5%
- ILS at 60 µM (C. elegans; [4]): 5.8%
- ILS at 60 µM (C. elegans; [5]): -5.3%
- ILS at 66 µM (C. elegans; [6]): 29.5%
- ILS at 66 µM (C. elegans; [7]): 5.8%
- ILS at 66 µM (C. elegans; [8]): -5.3%
- O = Life span- extending scores in worms (C. elegans): 0
- M = Lifespan-extending scores in worms (C. elegans): 0
- I = FOXO3-dependency for H2O2-resistance (FOXO3; score): 0
- I = FOXO3-dependency for H2O2-resistance (FOXO3; summary score): 0
- Assay 4: H2O2- & Cd-resistant (WI-38 cells [2]): YES
- Assay 2: Cadmium-resistant (WI-38 cells [2]): YES
- A = Cadmium resistant (WI-38 cells [2]; [11]): 0
- A = Cadmium resistant (WI-38 cells [2]; summary score): 1
- C = H2O2- & Cd-resistant (WI-38 cells [2]; summary score): 1

Compound: Cc1cc(N)n(-c2ccccc2C(=O)O)n1 [Gr-6A]
- Percentage of propidium iodide-positive dead cells (no H2O2 stress treatment), at 10 uM (WI-38 cells [1]): 0.41% ± 0.17%,
- ILS at 60 µM (C. elegans; [3]): 5.5%
- ILS at 60 µM (C. elegans; [4]): 6.8%
- ILS at 60 µM (C. elegans; [12]): -2.7%
- ILS at 60 µM (C. elegans; [5]): 16.9%
- ILS at 66 µM (C. elegans; [6]): 5.5%
- ILS at 66 µM (C. elegans; [7]): 6.8%
- ILS at 66 µM (C. elegans; [8]): 16.9%
- ILS at 66 µM (C. elegans; [13]): -2.7%
- O = Life span- extending scores in worms (C. elegans): 0
- M = Lifespan-extending scores in worms (C. elegans): 0
- I = FOXO3-dependency for H2O2-resistance (FOXO3; score): 0
- I = FOXO3-dependency for H2O2-resistance (FOXO3; summary score): 0
- CdCl2-resistant (WI-38 cells [2]): YES
- H2O2- & CdCl2-resistant (WI-38 cells [2]): YES
- fold induction at 10 µM (WI-38 cells [2]; [9]): 2.46
- fold induction at 10 µM (WI-38 cells [2]; [10]): 2.36
- CdCl2-resistant (WI-38 cells [2]; WI-38 cells, 10 μM): YES
- H2O2- & CdCl2-resistant (WI-38 cells [2]; [14]): YES
- Assay 4: H2O2- & Cd-resistant (WI-38 cells [2]): YES
- Assay 2: Cadmium-resistant (WI-38 cells [2]): YES
- A = Cadmium resistant (WI-38 cells [2]; [11]): 1
- A = Cadmium resistant (WI-38 cells [2]; summary score): 1
- C = H2O2- & Cd-resistant (WI-38 cells [2]; summary score): 1

Compound: O=C(/C=C/c1cn(-c2ccccc2)nc1-c1cccnc1)c1ccccc1 [Gr-6B]
- Percentage of propidium iodide-positive dead cells (no H2O2 stress treatment), at 10 uM (WI-38 cells [1]): 0.46% ± 0.25%,
- ILS at 60 µM (C. elegans; [3]): 3%
- ILS at 60 µM (C. elegans; [4]): 0.2%
- ILS at 60 µM (C. elegans; [12]): -1.3%
- ILS at 60 µM (C. elegans; [5]): 20.6%
- ILS at 66 µM (C. elegans; [6]): 3%
- ILS at 66 µM (C. elegans; [7]): 0.2%
- ILS at 66 µM (C. elegans; [8]): 20.6%
- ILS at 66 µM (C. elegans; [13]): -1.3%
- O = Life span- extending scores in worms (C. elegans): 0
- M = Lifespan-extending scores in worms (C. elegans): 0
- I = FOXO3-dependency for H2O2-resistance (FOXO3; score): 0
- I = FOXO3-dependency for H2O2-resistance (FOXO3; summary score): 0
- CdCl2-resistant (WI-38 cells [2]): YES
- H2O2- & CdCl2-resistant (WI-38 cells [2]): YES
- fold induction at 10 µM (WI-38 cells [2]; [9]): 5.07
- fold induction at 10 µM (WI-38 cells [2]; [10]): 2.65
- CdCl2-resistant (WI-38 cells [2]; WI-38 cells, 10 μM): YES
- H2O2- & CdCl2-resistant (WI-38 cells [2]; [14]): YES
- Assay 4: H2O2- & Cd-resistant (WI-38 cells [2]): YES
- Assay 2: Cadmium-resistant (WI-38 cells [2]): YES
- A = Cadmium resistant (WI-38 cells [2]; [11]): 1
- A = Cadmium resistant (WI-38 cells [2]; summary score): 1
- C = H2O2- & Cd-resistant (WI-38 cells [2]; summary score): 1

Compound: N=C1S/C(=C\c2cn(-c3ccccc3)nc2-c2cccs2)C(=O)N1c1nccs1 [Gr-6C]
- Percentage of propidium iodide-positive dead cells (no H2O2 stress treatment), at 10 uM (WI-38 cells [1]): 0.66% ± 0.26%,
- ILS at 60 µM (C. elegans; [3]): 20.5%
- ILS at 60 µM (C. elegans; [4]): 12.4%
- ILS at 60 µM (C. elegans; [5]): 9.4%
- ILS at 66 µM (C. elegans; [6]): 20.5%
- ILS at 66 µM (C. elegans; [7]): 12.4%
- ILS at 66 µM (C. elegans; [8]): 9.4%
- Extension of C. elegans' lifespan (qualitative) (C. elegans; in at least 3 to 4 trials, group range ~10% to ~50%): could extend animal's lifespan
- Trials with lifespan extension (C. elegans; positive of total trials): 3 of 3
- O = Life span- extending scores in worms (C. elegans): 2 (2 for observed in more than 2 trials)
- M = Lifespan-extending scores in worms (C. elegans): 2 (2 for observed in more than 2 trials)
- I = FOXO3-dependency for H2O2-resistance (FOXO3; score): 0
- I = FOXO3-dependency for H2O2-resistance (FOXO3; summary score): 0
- A = Cadmium resistant (WI-38 cells [2]; [11]): 0
- A = Cadmium resistant (WI-38 cells [2]; summary score): 0
- C = H2O2- & Cd-resistant (WI-38 cells [2]; summary score): 0
